Data reported in patent publication USRE39192E1, “Supplemented and unsupplemented tissue sealants, methods of their production and use” (American National Red Cross, priority 1990, dated 2006).

Tests used:
[1] = tested on: NIH 3T3 cells; experiment: 3H-thymidine incorporation assay with NIH 3T3 cells; type: cell-based; conditions: after incubation with 250 U/ml thrombin and 5 U/ml heparin for 0, 24 or 72 hours
Protocol: FIG. 2. Graph ShowingReissue the incorporation of ^3H-thymidine as a function of relative HBGF-1β concentration. Samples of the HBGF-1β were incubated, as described in FIG. 1 and Example 2, in the presence of 250 U/ml thrombin and 5 U/ml heparin for 0, 24 or 72 hours. Dilutions of these samples were then added to NHI 3T3 cells, which were plated as described in Example 3. CPM is plotted v. HBGF-1 concentration.
The biological activity of HBGF-1 in the incubation mixture that contained 5 U/ml of heparin, and was described in Example 2, was measuring using an ^3H-thymidine incorporation assay with NIH 3T3 cells.
NIH 3T3 cells were introduced into 96 well plates and were incubated at 37° C. under starvation conditions in Dulbecco's Modified Medium (DMEM; GIBCO, Grand Island, N.Y.) with 0.5% […] bovine serum (BCS; GIBCO, Grand Island, N.Y.) until the cells reached 30 to 50% confluence. Two days later, varying dilutions of HBGF-1 from the samples prepared in Example 2 were added to each well without changing the medium. Diluent (incubation buffer) was added in place of growth factor for the negative controls and DMEM with 10% BCS, which contains growth factors needed for growth, was added in place of the HBGF-1 sample for the positive controls. […]

[2] = tested on: NIH 3T3 fibroblasts; experiment: Cell chemotaxis assay (modified Boyden's chamber), NIH 3T3 fibroblasts; type: cell-based
Description: NIH/3T3 fibroblasts at passage 126 were purchased from the American Type Culture Collection, Rockville, Md. Cultures from passages 129-133 were used in the chemotaxis assays. Cultures were propagated in DMEM supplemented with 10%. Calf serum and approximately 1% antibiotic antimycotic solution. Human dermal fibroblasts (HDFs) were purchased from Clonetics, Inc. (San Diego, Calif.) at passage 2. Cultures from passages 3-5 were used in the chemotaxis assays. Cultures were cultivated in DMEM supplemented with 20% FBS (Hyclone Laboratories, Inc., Logan, Utah) and approximately 1% antibiotic antimycotic solution (Gibco, Grand Island, N.Y.).
The procedure used to determine cellular chemotaxis was a combination of two known methodologies. A modification of Boyden's chamber was used as follows: Millicell-PCF (Millipore, Inc., Bedford, Mass.) (12.0 μm) 12.0 mm diameter inserts were placed in individual wells of 24 well plates to create the upper and lower chemotaxis chambers. Chemotaxis results were arrived at by performing checkerboard analysis for every combination of cells and growth factors. […] Briefly, cultures were trypsanized and placed in DMEM+0.1% Bovine Serum Albumin (BSA) (Sigma Chemical Co., St. Louis, Mo.) for approximately one hour at 37° C. in a 5% CO2 humidified chamber. Tow to 2.5×10^5 cells in 50 μl were added per insert to the upper chamber of the setup of the 24 well plates. Treatments were added as mentioned above. The assay was kept at 37° C. in a 5% CO2 humidified chamber for 4 hours. All combinations tested were performed in triplicate. At the end of 4 hours, the plates were removed from the incubator and the filters were stained following the protocol for staining included with the Millicell-PCT inserts. Briefly, the fluid surrounding the inside and outside of the Millicell-PCF inserts were removed. Three percent glutaraldehyde (Sigma Chemical Co., St. Louis, Mo.) was added to the outside and inside of the inserts for approximately 20 minutes. Following removal of the 3.0% glutaraldehyde, 0.5% Triton X-100 (E.M. Science, Cherry Hill, N.J.) was added for 5-7 minutes. On removal of the 0.5% Triton X-100, Fisher's Hematoxylin Solution Gill's Formulation (Fisher Scientific, Newark, Del.) No.1 was added for about 10 minutes. This solution was washed off in running distilled water for about 5 minutes. Using a cotton swab the upper side of the filter was swabbed to remove cells which had not migrated. Filters, were mounted lower side facing up on slides in Crystal Mount™ (Biomedia, Inc., Foster City, Calif.) solution and 10 random field were counted per slide both visually at 400× and at 200×using an Image Analyzing System to automate the enumeration of the cells on the underside of the filters.
As required, checkerboard analysis was carried out to determine random migration, and positive and negative chemotaxis. Growth factors were added to the upper and/or lower chambers to observe whether cells migrated towards the GF alone (chemotaxis), whether migration was random irrespective of whether the growth factor was added to the upper or lower well (chemokinesis) or whether cell migration was against the chemotactic gradient (negative chemotaxis).

HBGF-1: heparin binding growth factor-1, also known as ECGF and FGF-1; recombinant HBGF-1β expressed in E. coli
biological activity (3H-thymidine incorporation) [1]: retained its biological activity
checkerboard analysis [2]: chemotactic
concentration of maximum stimulation of migration ([2]; FGF-1 in the presence of 10 U/ml heparin): 10 ng/mL
migrated cells (checkerboard analysis) ([2]; lower 0 ng/ml, upper 1 ng/ml): 53.93 +/− 4.152
migrated cells (checkerboard analysis) ([2]; lower 0 ng/ml, upper 5 ng/ml): 27.27 +/− 3.873
migrated cells (checkerboard analysis) ([2]; lower 0 ng/ml, upper 10 ng/ml): 25.96 +/− 4.151
migrated cells (checkerboard analysis) ([2]; lower 1 ng/ml, upper 0 ng/ml): 59.46 +/− 6.89
migrated cells (checkerboard analysis) ([2]; lower 1 ng/ml, upper 1 ng/ml): 36.9 +/− 5.728
migrated cells (checkerboard analysis) ([2]; lower 1 ng/ml, upper 5 ng/ml): 22.1 +/− 9.232
migrated cells (checkerboard analysis) ([2]; lower 1 ng/ml, upper 10 ng/ml): 35.86 +/− 2.074
migrated cells (checkerboard analysis) ([2]; lower 5 ng/ml, upper 0 ng/ml): 64.867 +/− 1.75
migrated cells (checkerboard analysis) ([2]; lower 5 ng/ml, upper 1 ng/ml): 41.44 +/− 1.866
migrated cells (checkerboard analysis) ([2]; lower 5 ng/ml, upper 5 ng/ml): 24.84 +/− 4.337
migrated cells (checkerboard analysis) ([2]; lower 5 ng/ml, upper 10 ng/ml): 41.6 +/− 6.717
migrated cells (checkerboard analysis) ([2]; lower 10 ng/ml, upper 0 ng/ml): 70.83 +/− 2.752
migrated cells (checkerboard analysis) ([2]; lower 10 ng/ml, upper 1 ng/ml): 39.73 +/− 2.428
migrated cells (checkerboard analysis) ([2]; lower 10 ng/ml, upper 5 ng/ml): 39.73 +/− 2.428
migrated cells (checkerboard analysis) ([2]; lower 10 ng/ml, upper 10 ng/ml): 41.83 +/− 6.879
